# Source: patent publication US20250296959A1, “B7-H3 TARGETING PEPTIDES AND CONSTRUCTS THEREOF” (Mariana Oncology Inc., priority 2024, published 2025)
# Starred links: 1 amine or outer side, 2 acyl side, 3 side chain; linkers in the order of their positions; H or OH if unused. Positions of bridges follow the written chain, without caps; N, C: chain ends. Non-standard residues stand in square brackets, D forms with d. Residues, ends and D or L forms follow the SMILES beside them. Groups on a side chain read outwards from the residue. ξ: configuration not given here. *: point of attachment. Ala(piperidin-4-yl) = O=C([C@H](CC1CCN([*:3])CC1)N[*:1])[*:2]; Phe(3R-OH) = O=C([C@@H](N[*:1])[C@H](O[*:3])c1ccccc1)[*:2]; DOTA = O=C(O)CN1CCN(CC(=O)O)CCN(CC(=O)*)CCN(CC(=O)O)CC1; Phe(4-NHCONH2) = NC(=O)Nc1ccc(C[C@H](N)C(=O)O)cc1; Trp(5-F) = N[C@@H](Cc1c[nH]c2ccc(F)cc12)C(=O)O; X1 = C[C@@H](c1ccccc1)[C@H](N[*:1])C(=O)[*:2]; γGlu = O=C(O)[C@H](CCC(=O)[*:2])N[*:1]; 1Nal = N[C@@H](Cc1cccc2ccccc12)C(=O)O; 2Nal = N[C@@H](Cc1ccc2ccccc2c1)C(=O)O; Ala(4-THP) = N[C@@H](CC1CCOCC1)C(=O)O; Ile(3-Me) = CCC(C)(C)[C@H](N)C(=O)O; Val(3-OH) = CC(C)(O)[C@H](N)C(=O)O; cisHyp = O=C(O)[C@@H]1C[C@H](O)CN1; 4Pal = N[C@@H](Cc1ccncc1)C(=O)O; Chg = N[C@H](C(=O)O)C1CCCCC1; Tle = CC(C)(C)[C@H](N)C(=O)O; hLeu = CC(C)CC[C@H](N)C(=O)O; αMeP = C[C@@]1(C(=O)O)CCCN1; NMeS = CN[C@@H](CO)C(=O)O; Nle = CCCC[C@H](N)C(=O)O; Orn = NCCC[C@H](N)C(=O)O; ξV = CC(C)C(N)C(=O)O
# Biological target: T1, human 4lg B7-H3 (Homo sapiens, UniProt Q5ZPR3)
# T1 sequence (Q5ZPR3 29-534): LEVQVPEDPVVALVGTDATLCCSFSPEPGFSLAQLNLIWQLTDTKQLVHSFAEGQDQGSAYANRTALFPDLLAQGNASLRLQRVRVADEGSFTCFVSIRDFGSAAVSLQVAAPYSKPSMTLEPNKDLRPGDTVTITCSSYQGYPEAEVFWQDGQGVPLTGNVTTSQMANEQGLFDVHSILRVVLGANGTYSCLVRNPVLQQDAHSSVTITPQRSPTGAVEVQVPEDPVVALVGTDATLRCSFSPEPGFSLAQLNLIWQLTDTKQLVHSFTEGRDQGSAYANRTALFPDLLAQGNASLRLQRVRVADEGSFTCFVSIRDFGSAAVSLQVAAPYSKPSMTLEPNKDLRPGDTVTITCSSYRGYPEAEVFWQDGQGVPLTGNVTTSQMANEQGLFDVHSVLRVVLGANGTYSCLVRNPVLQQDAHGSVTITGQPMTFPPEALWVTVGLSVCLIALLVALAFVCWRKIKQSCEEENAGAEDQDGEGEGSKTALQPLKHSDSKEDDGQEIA
# Experiment: Affinity determination by surface plasmon resonance (SPR) to 4Ig B7-H3
# Conditions: SPR KD—25° C., 4Ig B7-H3; 25° C. flow cell temperature
row,Kd [µM],SMILES
1,0.01 to 0.1,"CC(=O)N[C@@H](CCC(C)C)C(=O)N[C@@H](Cc1ccc(O)cc1)C(=O)N[C@H]1CSSC[C@@H](C(=O)N[C@@H](Cc2cccc3ccccc23)C(=O)N[C@@H](Cc2ccccc2)C(=O)N2C[C@@H](O)C[C@H]2C(N)=O)NC(=O)[C@H](Cc2ccc(O)cc2)NC(=O)[C@H](C(C)C)NC(=O)[C@H](CC(=O)O)NC(=O)[C@H](Cc2ccncc2)NC(=O)[C@H](CCCCNC(=O)CN2CCN(CC(=O)O)CCN(CC(=O)O)CCN(CC(=O)O)CC2)NC(=O)CNC(=O)[C@H](C(C)(C)C)NC1=O [compound 250, Ac-hLeu-Y-C-Tbg-G-Lys(DOTA)-4PyA-D-V-Y-C-1Nal-F-(cisHyp)-CONH2] (Ac-[hLeu]YC[Tle]GK(DOTA)[4Pal]DVYC[1Nal]F[cisHyp]-NH2; disulfide 3-11)"
2,0.001 to 0.01,"CC(=O)N[C@@H](CCC(C)C)C(=O)N[C@@H](Cc1ccc(O)cc1)C(=O)N[C@H]1CSSC[C@@H](C(=O)N[C@@H](Cc2cccc3ccccc23)C(=O)N[C@@H](Cc2ccccc2)C(=O)N2CCC[C@@]2(C)C(=O)N[C@H](CCCCNC(=O)CN2CCN(CC(=O)O)CCN(CC(=O)O)CCN(CC(=O)O)CC2)C(N)=O)NC(=O)[C@H](Cc2ccc(O)cc2)NC(=O)[C@H](C(C)C)NC(=O)[C@H](CC(=O)O)NC(=O)[C@H](Cc2ccc(O)cc2)NC(=O)[C@H](CCCCN)NC(=O)CNC(=O)[C@H](C(C)C)NC1=O [compound 247, Ac-hLeu-Y-C-V-G-K-Y-D-V-Y-C-1Nal-F-aMePro-dLys(DOTA)-CONH2] (Ac-[hLeu]YCVGKYDVYC[1Nal]F[αMeP][dK](DOTA)-NH2; disulfide 3-11)"

# Second part, the molecule before the results:
row,SMILES,Kd [µM]
1,"CC(=O)N[C@@H](CCC(C)C)C(=O)N[C@@H](Cc1ccc(O)cc1)C(=O)N[C@H]1CSSC[C@@H](C(=O)N[C@@H](Cc2cccc3ccccc23)C(=O)N[C@@H](Cc2ccccc2)C(=O)N(C)[C@@H](CO)C(=O)N[C@H](CCCCNC(=O)CN2CCN(CC(=O)O)CCN(CC(=O)O)CCN(CC(=O)O)CC2)C(N)=O)NC(=O)[C@H](C2CCCCC2)NC(=O)[C@H](C(C)C)NC(=O)[C@H](CC(=O)O)NC(=O)[C@H](Cc2ccncc2)NC(=O)[C@H](CCCCN)NC(=O)CNC(=O)[C@H](C(C)(C)C)NC1=O [compound 243, Ac-hLeu-Y-C-Tbg-G-K-4PyA-D-V-Chg-C-1Nal-F-NMeSer-dLys(DOTA)-CONH2] (Ac-[hLeu]YC[Tle]GK[4Pal]DV[Chg]C[1Nal]F[NMeS][dK](DOTA)-NH2; disulfide 3-11)",0.01 to 0.1
2,"CC(=O)N[C@@H](CCC(C)C)C(=O)N[C@@H](Cc1ccc(O)cc1)C(=O)N[C@H]1CSSC[C@@H](C(=O)N[C@@H](Cc2c[nH]c3ccccc23)C(=O)N[C@@H](Cc2ccccc2)C(=O)N[C@H](C(=O)N[C@H](CCCCNC(=O)CN2CCN(CC(=O)O)CCN(CC(=O)O)CCN(CC(=O)O)CC2)C(N)=O)[C@@H](C)O)NC(=O)[C@H](Cc2ccc(O)cc2)NC(=O)[C@H](C2CCCCC2)NC(=O)[C@H](CC(=O)O)NC(=O)[C@H](Cc2ccc(O)cc2)NC(=O)[C@H](CCCN)NC(=O)CNC(=O)[C@H](C(C)(C)C)NC1=O [compound 138, Ac-hLeu-Y-C-Tbg-G-Orn-Y-D-Chg-Y-C-W-F-Thr-dLys(DOTA)-CONH2] (Ac-[hLeu]YC[Tle]G[Orn]YD[Chg]YCWFT[dK](DOTA)-NH2; disulfide 3-11)",0.001 to 0.01
3,"CCCC[C@H](NC(C)=O)C(=O)N[C@@H](Cc1ccc(O)cc1)C(=O)N[C@H]1CSSC[C@@H](C(=O)N[C@@H](Cc2ccc3ccccc3c2)C(=O)N[C@@H](Cc2ccccc2)C(=O)N[C@H](C(=O)N[C@H](CCCCNC(=O)CN2CCN(CC(=O)O)CCN(CC(=O)O)CCN(CC(=O)O)CC2)C(N)=O)[C@@H](C)O)NC(=O)[C@H](Cc2ccc(O)cc2)NC(=O)C(C(C)C)NC(=O)[C@H](CC(=O)O)NC(=O)[C@H](Cc2ccc(O)cc2)NC(=O)[C@H](CCCCN)NC(=O)CNC(=O)[C@H](C(C)C)NC1=O (stereo partly drawn) [compound 129, Ac-Nle-Y-C-V-G-K-Y-D-V-Y-C-2Nal-F-Thr-dLys(DOTA)-CONH2] (Ac-[Nle]YCVGKYD[ξV]YC[2Nal]FT[dK](DOTA)-NH2; disulfide 3-11)",0.1 to 0.3
4,"CC(=O)N[C@@H](CCC(C)C)C(=O)N[C@@H](Cc1ccc(O)cc1)C(=O)N[C@H]1CSSC[C@@H](C(=O)N[C@@H](Cc2c[nH]c3ccc(F)cc23)C(=O)N[C@@H](Cc2ccccc2)C(=O)N(C)[C@@H](CO)C(N)=O)NC(=O)[C@H](Cc2ccc(O)cc2)NC(=O)[C@H](C(C)C)NC(=O)[C@H](CC(=O)O)NC(=O)[C@H](Cc2ccncc2)NC(=O)[C@H](CCCCNC(=O)CN2CCN(CC(=O)O)CCN(CC(=O)O)CCN(CC(=O)O)CC2)NC(=O)CNC(=O)[C@H](C(C)C)NC1=O [compound 228, Ac-hLeu-Y-C-V-G-Lys(DOTA)-4PyA-D-V-Y-C-5FW-F-NMeSer-CONH2] (Ac-[hLeu]YCVGK(DOTA)[4Pal]DVYC[Trp(5-F)]F[NMeS]-NH2; disulfide 3-11)",0.001 to 0.01

# Same assay, conditions: SPR KD—37° C., 4Ig B7-H3; 37° C. flow cell temperature
row,Kd [µM],SMILES
1,< 0.001,"CC(=O)N[C@@H](CCC(C)C)C(=O)N[C@@H](Cc1ccc(O)cc1)C(=O)N[C@H]1CSSC[C@@H](C(=O)N[C@@H](Cc2c[nH]c3ccc(F)cc23)C(=O)N[C@H](C(=O)N[C@H](C(=O)N[C@H](CCCCNC(=O)CN2CCN(CC(=O)O)CCN(CC(=O)O)CCN(CC(=O)O)CC2)C(=O)O)C(C)(C)O)[C@H](O)c2ccccc2)NC(=O)[C@H](Cc2ccc(O)cc2)NC(=O)[C@H](C(C)C)NC(=O)[C@H](CC(=O)O)NC(=O)[C@H](CC2CCOCC2)NC(=O)[C@H](CC2CCNCC2)NC(=O)CNC(=O)[C@H](C(C)(C)C)NC1=O [compound 469, Ac-hLeu-Y-C-Tbg-G-PipAla-ThpA-D-V-Y-C-5FW-[(2S, 3R)beta-OH-Phe]-hydroxyVal-dLys(DOTA)-COOH] (Ac-[hLeu]YC[Tle]G[Ala(piperidin-4-yl)][Ala(4-THP)]DVYC[Trp(5-F)][Phe(3R-OH)][Val(3-OH)][dK](DOTA)-OH; disulfide 3-11)"
2,< 0.001,"CC(=O)N[C@@H](CCC(C)C)C(=O)N[C@@H](Cc1ccc(O)cc1)C(=O)N[C@H]1CSSC[C@@H](C(=O)N[C@@H](Cc2c[nH]c3ccc(F)cc23)C(=O)N[C@H](C(=O)N[C@H](C(=O)N[C@H](CCCCNC(=O)[C@H](CCC(=O)O)NC(=O)CN2CCN(CC(=O)O)CCN(CC(=O)O)CCN(CC(=O)O)CC2)C(=O)O)C(C)(C)O)[C@@H](C)c2ccccc2)NC(=O)[C@H](Cc2ccc(NC(N)=O)cc2)NC(=O)[C@H](C(C)C)NC(=O)[C@H](CC(=O)O)NC(=O)[C@H](CC2CCOCC2)NC(=O)[C@H](CC2CCNCC2)NC(=O)CNC(=O)[C@H](C(C)(C)C)NC1=O [compound 503, Ac-hLeu-Y-C-Tbg-G-PipAla-ThpA-D-V-Aph(Cbm)-C-5FW-[(2S, 3S)beta-Me-Phe]-hydroxyVal-dLys(Glu-DOTA)-COOH] (Ac-[hLeu]YC[Tle]G[Ala(piperidin-4-yl)][Ala(4-THP)]DV[Phe(4-NHCONH2)]C[Trp(5-F)][X1][Val(3-OH)][dK]([Glu-DOTA])-OH; disulfide 3-11)"
3,< 0.001,"CCC(C)(C)[C@@H]1NC(=O)[C@@H](NC(=O)[C@H](Cc2ccc(O)cc2)NC(=O)[C@H](CCC(C)C)NC(C)=O)CSSC[C@@H](C(=O)N[C@@H](Cc2c[nH]c3ccc(F)cc23)C(=O)N[C@@H](Cc2ccccc2)C(=O)N[C@H](C(=O)N[C@H](CCCCNC(=O)CN2CCN(CC(=O)O)CCN(CC(=O)O)CCN(CC(=O)O)CC2)C(=O)O)C(C)(C)O)NC(=O)[C@H](Cc2ccc(O)cc2)NC(=O)[C@H](C(C)C)NC(=O)[C@H](CC(=O)O)NC(=O)[C@H](CC2CCOCC2)NC(=O)[C@H](CC2CCNCC2)NC(=O)CNC1=O [compound 432, Ac-hLeu-Y-C-betaMelle-G-PipAla-ThpA-D-V-Y-C-5FW-F-hydroxyVal-dLys(DOTA)-COOH] (Ac-[hLeu]YC[Ile(3-Me)]G[Ala(piperidin-4-yl)][Ala(4-THP)]DVYC[Trp(5-F)]F[Val(3-OH)][dK](DOTA)-OH; disulfide 3-11)"
4,0.01 to 0.1,"CC(=O)N[C@@H](CCC(C)C)C(=O)N[C@@H](Cc1ccc(O)cc1)C(=O)N[C@H]1CSSC[C@@H](C(=O)N[C@@H](Cc2c[nH]c3ccc(F)cc23)C(=O)N[C@@H](Cc2ccccc2)C(=O)N[C@H](C(=O)N[C@H](CCCCNC(=O)CN2CCN(CC(=O)O)CCN(CC(=O)O)CCN(CC(=O)O)CC2)C(=O)O)C(C)(C)O)NC(=O)[C@H](Cc2ccc(O)cc2)NC(=O)[C@H](C(C)C)NC(=O)[C@H](CC(=O)O)NC(=O)[C@H](CC2CCOCC2)NC(=O)[C@@H]2CCCN2C(=O)CNC(=O)[C@H](C(C)(C)C)NC1=O [compound 349, Ac-hLeu-Y-C-Tbg-G-Pro-ThpA-D-V-Y-C-5FW-F-hydroxyVal-dLys(DOTA)-COOH] (Ac-[hLeu]YC[Tle]GP[Ala(4-THP)]DVYC[Trp(5-F)]F[Val(3-OH)][dK](DOTA)-OH; disulfide 3-11)"
5,< 0.001,"CC(=O)N[C@@H](CCC(C)C)C(=O)N[C@@H](Cc1ccc(O)cc1)C(=O)N[C@H]1CSSC[C@@H](C(=O)N[C@@H](Cc2cccc3ccccc23)C(=O)N[C@@H](Cc2ccccc2)C(=O)N[C@H](C(=O)N[C@H](CCCCNC(=O)CC[C@H](NC(=O)CN2CCN(CC(=O)O)CCN(CC(=O)O)CCN(CC(=O)O)CC2)C(=O)O)C(=O)O)C(C)(C)O)NC(=O)[C@H](Cc2ccc(O)cc2)NC(=O)[C@H](C(C)C)NC(=O)[C@H](CC(=O)O)NC(=O)[C@H](CC2CCOCC2)NC(=O)[C@H](CC2CCNCC2)NC(=O)CNC(=O)[C@H](C(C)(C)C)NC1=O [compound 441, Ac-hLeu-Y-C-Tbg-G-PipAla-ThpA-D-V-Y-C-1Nal-F-hydroxyVal-dLys(gGlu-DOTA)-COOH] (Ac-[hLeu]YC[Tle]G[Ala(piperidin-4-yl)][Ala(4-THP)]DVYC[1Nal]F[Val(3-OH)][dK]([γGlu-DOTA])-OH; disulfide 3-11)"
